From ChEMBL document CHEMBL4330071 (Eur J Med Chem, 2019)

Experiments:
[1] = target: Discoidin domain-containing receptor 2 (Homo sapiens, UniProt Q16832); test: Inhibition of human DDR2 using KKSRGDYMTMQIG as substrate preincubated for 20 mins followed by [gamma-33P]-ATP addition and measured after 120 mins by Hotspot assay
[2] = target: Mitogen-activated protein kinase 3 (Homo sapiens) (UniProt P27361); test: Inhibition of human ERK1 assessed as residual activity at 10 uM using MBP as substrate preincubated for 20 mins followed by [gamma-33P]-ATP addition and measured after 120 mins by Hotspot assay relative to control
Sequence of Mitogen-activated protein kinase 3 (Homo sapiens) (P27361 whole entry, the tested form may be a part): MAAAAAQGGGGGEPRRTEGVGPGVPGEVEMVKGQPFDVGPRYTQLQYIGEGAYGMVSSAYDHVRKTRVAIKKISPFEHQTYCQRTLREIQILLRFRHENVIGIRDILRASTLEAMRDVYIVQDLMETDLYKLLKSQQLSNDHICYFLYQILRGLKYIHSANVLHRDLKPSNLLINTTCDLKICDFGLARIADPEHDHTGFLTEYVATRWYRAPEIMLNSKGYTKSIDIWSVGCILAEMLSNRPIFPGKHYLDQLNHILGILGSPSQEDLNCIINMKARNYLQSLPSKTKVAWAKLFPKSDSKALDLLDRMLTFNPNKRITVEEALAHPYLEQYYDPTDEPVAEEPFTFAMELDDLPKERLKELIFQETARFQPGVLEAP

[3] = target: Macrophage colony-stimulating factor 1 receptor (Homo sapiens, UniProt P07333); test: Binding affinity to wild-type human partial length CSF1R (I564 to S939 residues) expressed in bacterial expression system after 60 mins by Kinomescan method
K562 = test: Growth inhibition of FLT3 null human K562 cells at 10 uM after 72 hrs by CellTiter-Glo assay relative to control; type: functional; conditions: K562, 72 h, read-out: GI
[4] = target: T1, Tyrosine-protein kinase ABL1 (Homo sapiens, UniProt P00519, F317I); test: Binding affinity to human non-phosphorylated ABL1 F317I mutant (S229 to K512 residues) expressed in mammalian expression system after 60 mins by Kinomescan method
[5] = target: Tyrosine-protein kinase ABL1 (Homo sapiens, UniProt P00519, F317L); test: Binding affinity to human phosphorylated ABL1 F317L mutant (S229 to K512 residues) expressed in mammalian expression system after 60 mins by Kinomescan method
[6] = target: T1, Tyrosine-protein kinase ABL1; test: Binding affinity to human phosphorylated ABL1 F317I mutant (S229 to K512 residues) expressed in mammalian expression system after 60 mins by Kinomescan method
[7] = target: Aurora kinase A (Homo sapiens) (UniProt O14965); test: Inhibition of human Aurora A assessed as residual activity at 10 uM using [H-LRRASLG] as substrate preincubated for 20 mins followed by [gamma-33P]-ATP addition and measured after 120 mins by Hotspot assay relative to control
Sequence of Aurora kinase A (Homo sapiens) (O14965 whole entry, the tested form may be a part): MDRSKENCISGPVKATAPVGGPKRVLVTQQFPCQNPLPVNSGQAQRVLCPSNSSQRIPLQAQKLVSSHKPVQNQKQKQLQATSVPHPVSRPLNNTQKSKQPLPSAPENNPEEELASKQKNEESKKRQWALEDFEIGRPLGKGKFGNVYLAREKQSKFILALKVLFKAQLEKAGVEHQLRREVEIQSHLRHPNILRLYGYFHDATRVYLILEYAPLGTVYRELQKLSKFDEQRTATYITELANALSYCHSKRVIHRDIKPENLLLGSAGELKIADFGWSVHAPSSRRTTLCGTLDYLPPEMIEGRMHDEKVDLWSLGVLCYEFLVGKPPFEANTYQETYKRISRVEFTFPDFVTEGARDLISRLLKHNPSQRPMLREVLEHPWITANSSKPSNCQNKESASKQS

[8] = target: Tyrosine-protein kinase ABL1 (Homo sapiens, UniProt P00519, T315I); test: Binding affinity to human phosphorylated ABL1 T315I mutant (S229 to K512 residues) expressed in mammalian expression system after 60 mins by Kinomescan method
[9] = target: ALK tyrosine kinase receptor (Homo sapiens, UniProt Q9UM73); test: Inhibition of human ALK assessed as residual activity at 10 uM using poly[Glu:Tyr] (4:1) as substrate preincubated for 20 mins followed by [gamma-33P]-ATP addition and measured after 120 mins by Hotspot assay relative to control
PBMC = test: Cytotoxicity against human PBMC at 1 uM after 72 hrs by MTT assay; type: cell-based
MV4-11 [10] = test: Induction of apoptosis in human MV4-11 cells assessed as early apoptotic cells at 0.05 uM after 24 hrs by Annexin V-FITC/propidium iodide staining based flow cytometric analysis (reference value: 3.39%); type: functional
[11] = target: Cyclin-dependent kinase 5/CDK5 activator 1 (Homo sapiens) (UniProt Q00535+Q15078); test: Inhibition of human CDK5/p25 assessed as residual activity at 10 uM using histone H1 as substrate preincubated for 20 mins followed by [gamma-33P]-ATP addition and measured after 120 mins by Hotspot assay relative to control; type: protein-complex assay
MV4-11 [12] = test: Induction of apoptosis in human MV4-11 cells assessed as early apoptotic cells at 0.2 uM after 24 hrs by Annexin V-FITC/propidium iodide staining based flow cytometric analysis (reference value: 3.39%); type: functional
[13] = target: Tyrosine-protein kinase ABL1 (Homo sapiens, UniProt P00519); test: Inhibition of human ABL1 assessed as residual activity at 10 uM using EAIYAAPFAKKK as substrate preincubated for 20 mins followed by [gamma-33P]-ATP addition and measured after 120 mins by Hotspot assay relative to control
[14] = target: Cyclin-dependent kinase 4/cyclin D1 (Homo sapiens, UniProt P11802); test: Inhibition of human CDK4/cyclin-D1 using RB protein as substrate preincubated for 20 mins followed by [gamma-33P]-ATP addition and measured after 120 mins by Hotspot assay; type: protein-complex assay
Sequence of Cyclin-dependent kinase 4/cyclin D1 (P11802 whole entry): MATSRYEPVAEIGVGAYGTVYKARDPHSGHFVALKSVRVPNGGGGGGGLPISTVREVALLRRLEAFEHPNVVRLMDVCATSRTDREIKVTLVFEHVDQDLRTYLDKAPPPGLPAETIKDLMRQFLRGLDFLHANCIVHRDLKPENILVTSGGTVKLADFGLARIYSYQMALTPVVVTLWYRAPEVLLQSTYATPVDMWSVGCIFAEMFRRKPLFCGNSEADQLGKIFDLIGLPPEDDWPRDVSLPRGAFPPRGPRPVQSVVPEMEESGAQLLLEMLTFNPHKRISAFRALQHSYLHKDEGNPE
Sequence of Cyclin-dependent kinase 4/cyclin D1 (P24385 whole entry, further chain): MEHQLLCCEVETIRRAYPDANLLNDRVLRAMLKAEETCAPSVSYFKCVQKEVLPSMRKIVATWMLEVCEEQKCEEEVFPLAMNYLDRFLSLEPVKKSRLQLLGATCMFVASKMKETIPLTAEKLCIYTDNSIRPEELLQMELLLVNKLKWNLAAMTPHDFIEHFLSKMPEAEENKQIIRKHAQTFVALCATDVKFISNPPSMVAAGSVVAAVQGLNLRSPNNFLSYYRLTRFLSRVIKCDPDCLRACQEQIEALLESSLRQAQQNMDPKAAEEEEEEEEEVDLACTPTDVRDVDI

[15] = target: Cyclin-dependent kinase 7/ cyclin H (Homo sapiens, UniProt P50613); test: Inhibition of human CDK7/cyclin-H using MBP as substrate preincubated for 20 mins followed by [gamma-33P]-ATP addition and measured after 120 mins by Hotspot assay; type: protein-complex assay
Sequence of Cyclin-dependent kinase 7/ cyclin H (P51946 whole entry): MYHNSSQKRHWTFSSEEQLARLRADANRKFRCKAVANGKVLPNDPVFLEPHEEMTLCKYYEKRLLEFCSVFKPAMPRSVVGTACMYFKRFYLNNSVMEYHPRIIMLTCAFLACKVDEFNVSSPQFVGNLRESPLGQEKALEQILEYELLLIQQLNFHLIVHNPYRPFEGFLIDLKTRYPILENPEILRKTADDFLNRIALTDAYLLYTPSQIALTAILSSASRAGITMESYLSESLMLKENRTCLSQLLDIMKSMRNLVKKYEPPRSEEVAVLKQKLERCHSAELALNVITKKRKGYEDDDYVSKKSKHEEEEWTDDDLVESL
Sequence of Cyclin-dependent kinase 7/ cyclin H (P50613 whole entry): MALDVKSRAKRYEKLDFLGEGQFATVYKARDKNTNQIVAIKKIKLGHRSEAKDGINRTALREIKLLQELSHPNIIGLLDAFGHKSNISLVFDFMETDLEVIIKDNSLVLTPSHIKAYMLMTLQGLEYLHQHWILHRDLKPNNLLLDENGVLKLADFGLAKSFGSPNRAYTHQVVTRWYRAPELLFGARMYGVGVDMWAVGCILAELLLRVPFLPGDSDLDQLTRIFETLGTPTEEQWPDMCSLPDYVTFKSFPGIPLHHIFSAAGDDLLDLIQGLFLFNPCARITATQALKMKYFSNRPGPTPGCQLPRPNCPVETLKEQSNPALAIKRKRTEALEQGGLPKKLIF

[16] = target: Inhibitor of nuclear factor kappa-B kinase subunit alpha (Homo sapiens) (UniProt O15111); test: Inhibition of human IKKalpha assessed as residual activity at 10 uM using KKKKERLLDDRHDSGLDSMKDEE as substrate preincubated for 20 mins followed by [gamma-33P]-ATP addition and measured after 120 mins by Hotspot assay relative to control
Sequence of Inhibitor of nuclear factor kappa-B kinase subunit alpha (Homo sapiens) (O15111 whole entry): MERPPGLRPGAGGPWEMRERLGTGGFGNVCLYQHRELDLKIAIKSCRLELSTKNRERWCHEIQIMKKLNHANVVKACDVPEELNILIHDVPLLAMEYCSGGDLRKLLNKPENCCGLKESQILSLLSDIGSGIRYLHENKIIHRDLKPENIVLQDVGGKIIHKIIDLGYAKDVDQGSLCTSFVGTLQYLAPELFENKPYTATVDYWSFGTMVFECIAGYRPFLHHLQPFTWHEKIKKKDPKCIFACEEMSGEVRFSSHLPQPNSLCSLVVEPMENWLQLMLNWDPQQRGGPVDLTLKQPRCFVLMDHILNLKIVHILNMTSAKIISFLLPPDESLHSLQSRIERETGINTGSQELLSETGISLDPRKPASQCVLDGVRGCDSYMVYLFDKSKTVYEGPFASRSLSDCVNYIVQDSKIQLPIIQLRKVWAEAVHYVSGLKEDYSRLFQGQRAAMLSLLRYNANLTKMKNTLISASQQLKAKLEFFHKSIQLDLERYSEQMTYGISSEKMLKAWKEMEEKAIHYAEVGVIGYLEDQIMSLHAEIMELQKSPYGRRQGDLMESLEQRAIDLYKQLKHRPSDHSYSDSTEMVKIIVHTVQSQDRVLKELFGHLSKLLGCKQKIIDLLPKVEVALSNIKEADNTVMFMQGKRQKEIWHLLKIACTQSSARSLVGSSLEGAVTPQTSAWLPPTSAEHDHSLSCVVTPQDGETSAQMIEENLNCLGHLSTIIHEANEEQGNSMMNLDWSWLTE

MV4-11 [17] = test: Induction of apoptosis in human MV4-11 cells assessed as viable cells at 0.2 uM after 24 hrs by Annexin V-FITC/propidium iodide staining based flow cytometric analysis (reference value: 95.19%); type: functional; conditions: MV4-11, 24 h, read-out: Activity
HuT78 = test: Growth inhibition of human HUT78 cells at 10 uM after 72 hrs by CellTiter-Glo assay relative to control; type: functional; conditions: HuT78, 72 h, read-out: GI
MV4-11 [18] = test: Induction of apoptosis in human MV4-11 cells assessed as necrotic cells at 1 uM after 24 hrs by Annexin V-FITC/propidium iodide staining based flow cytometric analysis (reference value: 0%); type: functional
SMMC-7721 = test: Growth inhibition of human SMMC7721 cells at 10 uM after 72 hrs by CellTiter-Glo assay relative to control; type: functional; conditions: SMMC-7721, 72 h, read-out: GI
[19] = target: Mast/stem cell growth factor receptor Kit (Homo sapiens, UniProt P10721); test: Inhibition of human c-KIT assessed as residual activity at 10 uM using poly[Glu:Tyr] (4:1) as substrate preincubated for 20 mins followed by [gamma-33P]-ATP addition and measured after 120 mins by Hotspot assay relative to control
RS4-11 = test: Growth inhibition of human RS4:11 cells harboring WT FLT3 at 10 uM after 72 hrs by CellTiter-Glo assay relative to control; type: functional; conditions: RS4-11, 72 h, read-out: GI
[20] = target: Fibroblast growth factor receptor 1 (Homo sapiens, UniProt P11362); test: Inhibition of human FGFR1 using KKKSPGEYVNIEFG as substrate preincubated for 20 mins followed by [gamma-33P]-ATP addition and measured after 120 mins by Hotspot assay
Sequence of Fibroblast growth factor receptor 1 (P11362 whole entry): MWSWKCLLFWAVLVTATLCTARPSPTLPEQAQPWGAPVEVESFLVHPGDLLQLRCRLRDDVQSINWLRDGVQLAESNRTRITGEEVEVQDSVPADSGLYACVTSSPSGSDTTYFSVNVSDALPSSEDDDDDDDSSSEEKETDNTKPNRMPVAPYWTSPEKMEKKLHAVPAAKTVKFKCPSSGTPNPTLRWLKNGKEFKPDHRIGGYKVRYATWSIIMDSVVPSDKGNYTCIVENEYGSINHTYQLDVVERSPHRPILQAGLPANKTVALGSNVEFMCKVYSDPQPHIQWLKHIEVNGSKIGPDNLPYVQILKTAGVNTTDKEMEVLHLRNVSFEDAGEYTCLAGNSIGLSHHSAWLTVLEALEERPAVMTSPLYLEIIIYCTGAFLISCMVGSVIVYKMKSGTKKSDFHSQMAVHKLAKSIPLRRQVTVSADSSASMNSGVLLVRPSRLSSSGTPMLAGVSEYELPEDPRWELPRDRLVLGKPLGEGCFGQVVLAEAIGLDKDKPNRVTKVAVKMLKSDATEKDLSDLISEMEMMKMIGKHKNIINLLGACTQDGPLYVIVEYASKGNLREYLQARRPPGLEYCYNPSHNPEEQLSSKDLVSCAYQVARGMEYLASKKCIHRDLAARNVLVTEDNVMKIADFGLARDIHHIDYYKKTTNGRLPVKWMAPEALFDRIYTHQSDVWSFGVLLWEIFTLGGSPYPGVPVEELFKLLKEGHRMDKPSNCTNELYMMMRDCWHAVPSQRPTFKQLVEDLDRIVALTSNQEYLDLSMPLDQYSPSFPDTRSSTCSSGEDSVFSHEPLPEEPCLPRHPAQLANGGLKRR

[21] = target: T2, Vascular endothelial growth factor receptor 2 (Homo sapiens, UniProt P35968); test: Inhibition of human KDR using poly[Glu:Tyr] (4:1) as substrate preincubated for 20 mins followed by [gamma-33P]-ATP addition and measured after 120 mins by Hotspot assay
T2 sequence (P35968 whole entry): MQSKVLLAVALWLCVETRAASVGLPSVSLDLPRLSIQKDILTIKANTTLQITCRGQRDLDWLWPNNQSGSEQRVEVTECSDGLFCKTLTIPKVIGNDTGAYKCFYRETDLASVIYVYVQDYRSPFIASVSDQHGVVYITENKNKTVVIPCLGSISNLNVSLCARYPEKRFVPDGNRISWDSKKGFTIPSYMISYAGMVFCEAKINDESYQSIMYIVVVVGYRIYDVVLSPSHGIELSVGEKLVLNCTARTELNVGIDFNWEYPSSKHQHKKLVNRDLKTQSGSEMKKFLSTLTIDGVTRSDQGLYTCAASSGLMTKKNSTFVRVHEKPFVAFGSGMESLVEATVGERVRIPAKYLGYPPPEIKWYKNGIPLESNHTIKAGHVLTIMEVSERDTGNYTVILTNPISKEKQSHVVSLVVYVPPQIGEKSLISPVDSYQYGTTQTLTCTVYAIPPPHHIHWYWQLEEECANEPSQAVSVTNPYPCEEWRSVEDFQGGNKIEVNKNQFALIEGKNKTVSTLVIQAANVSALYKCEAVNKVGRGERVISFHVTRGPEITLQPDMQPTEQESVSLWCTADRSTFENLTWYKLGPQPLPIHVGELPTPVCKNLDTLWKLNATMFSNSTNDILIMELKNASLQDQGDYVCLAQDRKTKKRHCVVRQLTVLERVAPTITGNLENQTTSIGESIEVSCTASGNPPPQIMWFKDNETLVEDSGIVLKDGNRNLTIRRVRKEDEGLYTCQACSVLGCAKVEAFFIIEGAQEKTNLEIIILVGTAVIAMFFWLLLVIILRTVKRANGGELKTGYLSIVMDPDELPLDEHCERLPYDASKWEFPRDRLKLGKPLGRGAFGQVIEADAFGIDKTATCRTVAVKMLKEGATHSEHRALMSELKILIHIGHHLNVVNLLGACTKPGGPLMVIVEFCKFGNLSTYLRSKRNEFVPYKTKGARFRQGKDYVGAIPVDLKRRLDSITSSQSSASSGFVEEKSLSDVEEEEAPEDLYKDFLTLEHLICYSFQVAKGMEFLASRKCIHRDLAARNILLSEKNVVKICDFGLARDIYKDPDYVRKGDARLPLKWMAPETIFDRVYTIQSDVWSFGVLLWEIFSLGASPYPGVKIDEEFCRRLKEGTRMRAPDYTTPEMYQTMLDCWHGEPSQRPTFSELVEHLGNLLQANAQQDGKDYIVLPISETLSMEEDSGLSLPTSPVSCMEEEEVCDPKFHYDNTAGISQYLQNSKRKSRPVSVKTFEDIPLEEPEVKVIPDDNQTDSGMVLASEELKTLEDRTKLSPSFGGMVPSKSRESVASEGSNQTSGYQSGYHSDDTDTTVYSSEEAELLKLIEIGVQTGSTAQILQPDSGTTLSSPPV

[22] = target: T2, Vascular endothelial growth factor receptor 2; test: Inhibition of human KDR assessed as residual activity at 10 uM using poly[Glu:Tyr] (4:1) as substrate preincubated for 20 mins followed by [gamma-33P]-ATP addition and measured after 120 mins by Hotspot assay relative to control

## CN1CCC(Nc2ccc(C(=O)Nc3cc(-c4cc(C#N)cs4)n[nH]3)cc2)CC1
[1]
  IC50: 3.47 µM
[2]
  Activity: 87.6%
[3]
  Kd: 47 nM
K562
  inhibition of growth at 10 µM: 1.3%
[4]
  Kd: > 10 µM
[5]
  Kd: 460 nM
[6]
  Kd: > 10 µM
[7]
  Activity: 58.4%
[8]
  Kd: 500 nM
[9]
  Activity: 23%
PBMC
  Activity: Non-Toxic
MV4-11 [10]
  Activity: 21.04%
[11]
  Activity: 60.4%
MV4-11 [12]
  Activity: 25.33%
[13]
  Activity: 8.32%
[14]; read-out: IC50
  IC50: > 10 µM
[14]; read-out: pIC50 (converted)
  IC50: 10 µM
[15]
  IC50: 7.91 µM
[16]
  Activity: 86.5%
MV4-11 [17]
  viability at 0.2 µM: 48.8%
HuT78
  inhibition of growth at 10 µM: 3.9%
MV4-11 [18]
  Activity: 6.35%
SMMC-7721
  inhibition of growth at 10 µM: 1.47%
[19]
  Activity: 14.4%
RS4-11
  inhibition of growth at 10 µM: 1.33%
[20]
  IC50: 962 nM
[21]
  IC50: 6.26 µM
[22]
  Activity: 34%
